Entries after “also recorded” stand apart in the source; their conditions may differ.

The record followed here is patent publication US7208502B2, “Methods of treating conditions associated with an Edg-3 receptor” (Maniv Energy Capital, priority 2002, dated 2007).

One experiment has as its target T1, Edg-8 (Homo sapiens, UniProt Q9H228).
T1 construct: expressed in transfected cells; host or cells: HTC rat hepatoma cells
The experiment can be described thus: Intracellular calcium assay, S1P-stimulated, HTC cells expressing Edg-8. It is filed as cell-based. Conditions: concentrations as high as 20 µM. (A change in cytosolic calcium serves as a functional read-out for many receptors and channels.)

Experiment [1] has as its system Serotonin 5-HT1, non-selective. The experiment can be described thus: Radioligand binding assay, 3H Serotonin (5-HT) Trifluoroacetate. The settings on record: 10 μM; significance criteria ≧50% of max stimulation or inhibition. On the set-up: species or system Wistar rat. As for the experimental part: (§1) In order to test the selectivity of compounds, various enzyme assays as well as radioligand binding assays were performed using numerous non-Edg receptor targets as listed below.
(§2) A radioligand binding assay was performed using adrenergic α1 according to the method of Greengrass and Bremner 1979, Eur. J. Pharmacol. 55:323–326. A radioligand binding assay was performed using adrenergic α2 according to the method of Boyajian and Leslie, 1987, J. Pharmacol. Exp. Ther. 241:1092–1098. A radioligand binding assay was performed using adrenergic β according to the method of Feve et al., 1994, Proc. Natl. Acad. Sci. USA 91:5677–5681. A radioligand binding assay was performed using angiotensin AT2 according to the method of Whitebread et al., 1991, Biochem. Biophys. Res. Comm. 181:1365–1371. A radioligand binding assay was performed using calcium channel Type L, dihydropyridine according to the method of Ehlert et al., 1982, Life Sci. 30:2191–2202. A radioligand binding assay was performed using dopamine D2L according to the method of Bunzo et al., 1988, Nature 336:783–787. A radioligand binding assay was performed using endothelin ETA according to the method of Mihara et al., 1994, J. Phrmacol. Exp Ther. 268:1122–1127. A radioligand binding assay was performed using histamine H1 Central according to the method of Hill et al., 1978, J. Neurochem. 31:997–1004. […]
(§3) Quantitation Method: Radioligand Binding […]

For experiment [2], the system named is Muscarinic non-selective, Central. The experiment can be described thus: Radioligand binding assay, 3H Quinuclidinyl benzilate. The settings on record: 10 μM; significance criteria ≧50% of max stimulation or inhibition. On the set-up: species or system Wistar rat. As for the experimental part: as §1, §2, §3
The target of another experiment is T2, human Edg-3 receptors (Homo sapiens, UniProt Q99500).
T2 construct: expressed in transfected cells; host or cells: HTC rat hepatoma cells
T2 sequence (Q99500 whole entry): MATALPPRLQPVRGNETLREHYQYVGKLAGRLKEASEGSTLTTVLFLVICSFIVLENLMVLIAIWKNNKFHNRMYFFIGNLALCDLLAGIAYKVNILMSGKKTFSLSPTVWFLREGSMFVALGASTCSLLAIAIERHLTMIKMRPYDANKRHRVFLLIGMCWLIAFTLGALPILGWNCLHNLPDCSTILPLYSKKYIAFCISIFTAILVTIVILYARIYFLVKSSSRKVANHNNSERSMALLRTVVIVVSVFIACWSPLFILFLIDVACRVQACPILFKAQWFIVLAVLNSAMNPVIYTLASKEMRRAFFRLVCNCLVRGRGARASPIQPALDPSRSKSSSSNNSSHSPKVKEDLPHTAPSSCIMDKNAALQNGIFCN
The experiment can be described thus: Intracellular calcium (FLIPR) assay, S1P-stimulated, HTC cells expressing Edg-3. It is filed as cell-based. Conditions: HTC cells expressing human Edg-3 receptors; FIG. 1. From the text:
Specific assays for Edg-3 receptor activity are known to those of skill in the art. For example, cells expressing Edg-3 receptors can be contacted with a membrane-permeant calcium sensitive dye such as Fluo-4 AM or a proprietary calcium dye loading kit (e.g., FLIPR Calcium Assay kit, Molecular Devices, Sunnyvale, Calif.). Intracellular calcium is capable of binding to the dye and emitting fluorescent radiation when illuminated at the appropriate wavelength. The cells can thus be illuminated an appropriate wavelength for the dye and any emitting light can be captured by a cooled CCD camera. Changes in fluorescence indicate changes in intracellular calcium resulting from the activation of an Edg-3 receptor. Such changes can be measured advantageously in whole cells in “real-time” (Berridge et al., Nature Reviews 2000, 1:11–21). […]
[…] such as Edg-3, couple to calcium effector pathways, and result in increases in intracellular calcium following receptor activation (An, 1998, J. Cell Biochem. Supp 30–31:147–157). This biological response lends itself to a very efficient, high-throughput screen using a Fluorescence Imaging Plate Reader (FLIPR; Molecular Devices, Sunnyvale, Calif.). The FLIPR system is a real-time, cell-based assay system with continuous fluorescence detection using a cooled CCD camera. […]

Another experiment addresses T3, Edg-5 (Homo sapiens, UniProt O95136).
T3 construct: expressed in transfected cells; host or cells: HTC rat hepatoma cells
The experiment can be described thus: Intracellular calcium assay, S1P-stimulated, HTC cells expressing Edg-5. The experiment is classed as cell-based. The settings on record: concentrations as high as 20 µM.

Experiment [3] concerns Calcium Channel Type L, Dihydropyridine. The experiment can be described thus: Radioligand binding assay, 3H Nitrendipine. On the set-up: species or system Wistar Rat. Conditions: 10 μM; significance criteria ≧50% of max stimulation or inhibition. How it is done: as §1, §2, §3
For another experiment, the target named is T4, Edg-6 (Homo sapiens, UniProt O95977).
T4 construct: expressed in transfected cells; host or cells: HTC rat hepatoma cells
T4 sequence (O95977 1-384): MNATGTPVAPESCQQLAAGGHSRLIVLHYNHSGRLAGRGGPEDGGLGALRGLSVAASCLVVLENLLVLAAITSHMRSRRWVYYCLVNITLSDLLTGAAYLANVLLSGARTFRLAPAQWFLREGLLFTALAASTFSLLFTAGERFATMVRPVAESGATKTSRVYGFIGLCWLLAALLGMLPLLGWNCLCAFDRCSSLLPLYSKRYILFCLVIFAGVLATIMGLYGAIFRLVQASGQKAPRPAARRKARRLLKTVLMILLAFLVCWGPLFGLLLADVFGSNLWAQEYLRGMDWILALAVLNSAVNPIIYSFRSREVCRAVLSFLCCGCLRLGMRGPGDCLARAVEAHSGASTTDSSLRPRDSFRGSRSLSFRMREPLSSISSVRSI
The experiment can be described thus: Intracellular calcium assay, S1P-stimulated, HTC cells expressing Edg-6. The settings on record: concentrations as high as 20 µM. It is filed as cell-based.

T3 sequence (O95136 whole entry): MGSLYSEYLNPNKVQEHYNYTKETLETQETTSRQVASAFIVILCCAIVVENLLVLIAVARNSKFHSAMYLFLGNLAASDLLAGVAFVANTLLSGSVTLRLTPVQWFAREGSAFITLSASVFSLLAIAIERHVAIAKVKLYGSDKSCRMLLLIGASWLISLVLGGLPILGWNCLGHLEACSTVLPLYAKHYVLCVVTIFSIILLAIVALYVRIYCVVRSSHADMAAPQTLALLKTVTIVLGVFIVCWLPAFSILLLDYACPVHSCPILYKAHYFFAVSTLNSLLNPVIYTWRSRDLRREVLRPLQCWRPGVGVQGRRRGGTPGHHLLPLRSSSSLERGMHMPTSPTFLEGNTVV
T1 sequence (Q9H228 whole entry): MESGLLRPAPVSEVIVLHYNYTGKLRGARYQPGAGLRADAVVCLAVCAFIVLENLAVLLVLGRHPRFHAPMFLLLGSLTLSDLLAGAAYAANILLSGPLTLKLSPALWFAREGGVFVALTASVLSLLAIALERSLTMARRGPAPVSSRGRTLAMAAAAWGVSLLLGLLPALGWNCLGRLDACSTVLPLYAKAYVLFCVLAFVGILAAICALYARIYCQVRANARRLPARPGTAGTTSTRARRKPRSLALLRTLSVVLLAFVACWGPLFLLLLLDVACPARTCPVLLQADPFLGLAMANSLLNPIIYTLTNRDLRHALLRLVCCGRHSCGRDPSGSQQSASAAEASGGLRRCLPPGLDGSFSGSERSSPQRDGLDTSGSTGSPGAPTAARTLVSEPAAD

For `Cc1c(-c2ccccc2)nc2ccccc2c1C(=O)NCc1ccc(F)cc1` [Compound 101, 3-methyl-2-phenyl-quinoline-4-carboxylic acid 4-fluoro-benzylamide], the “inhibition of S1P-stimulated calcium increases, Edg-8” value at Edg-8 is reported as “did not inhibit”. For the same compound, the “activity in standard binding assay, Serotonin 5-HT1, non-selective” value in experiment [1] is “no activity”. Moreover, the “activity in standard binding assay, Muscarinic non-selective, Central” value in experiment [2] is recorded as “no activity”. Moreover, the “inhibition of Edg-3 stimulated S1P responses (Edg-3 receptors)” value on human Edg-3 receptors was “demonstrate inhibition; also recorded: specifically inhibited”. Besides, the “inhibition of S1P-stimulated calcium increases, Edg-5” value at Edg-5 was “did not inhibit”. Moreover, the “activity in standard binding assay, Calcium Channel Type L, Dihydropyridine” value in experiment [3] is “no activity”. The “inhibition of S1P-stimulated calcium increases, Edg-6” value on Edg-6 is on record as “did not inhibit”.
